From article PMC4466525, “Design, Synthesis and Structure-Activity Relationship Studies of Novel Survivin Inhibitors with Potent Anti-Proliferative Properties” (PLoS ONE, 2015)
Like-named read-outs stand apart in the source and are kept apart here.

Columns and labels:
A375 = assay: Cell viability (MTS) anti-proliferative assay, A375; format: cell-based; details: A-375, A375 human melanoma, 48 h treatment, n = 4, read-out: IC50 values ± SEM, A375
Procedure: (§1) The anti-proliferative effect of UC-112 and its analogs were tested in human melanoma (A375, M14 and M14/LCC6MDR1) and human prostate cancer (PC-3) cell lines. All the cell lines were purchased from ATCC (American Type Culture Collection, Manassas, VA). The cancer cells were cultured using the supplemented cell culture medium as described before at 37°C in a humidified atmosphere containing 5% CO2. 5000 cells in logarithm growing phase were seeded overnight into each well of a 96-well plate. Then the cells were continuously incubated with sequential diluted compound solution (10 nM to 100 μM, 100 μl per well) in cell culture medium.

M14 = assay: Cell viability (MTS) anti-proliferative assay, M14; format: cell-based; details: M14 human melanoma, 48 h treatment, n = 4, read-out: IC50 values ± SEM, M14
Procedure: as §1

M14/LCC6MDR1 = assay: Cell viability (MTS) anti-proliferative assay, multidrug-resistant M14/LCC6MDR1; format: cell-based, human; details: for IC50: multidrug-resistant M14/LCC6MDR1 melanoma, 48 h treatment, MTS, n = 4, read-out: IC50 values ± SEM, M14/LCC6MDR1; for Resistance Index: IC50 on M14/LCC6MDR1 divided by IC50 on parental M14
Procedure: as §1

PC-3 = assay: Cell viability (MTS) anti-proliferative assay, PC-3; format: cell-based; details: PC-3 human prostate cancer, 48 h treatment, n = 4, read-out: IC50 values ± SEM, PC-3
Procedure: as §1

NCI-60 cell lines = assay: NCI-60 cell line screening (SRB), whole panel; format: cell-based, human; details: for Activity in NCI-60 one-concentration screening: 10 μM
Procedure: Four compounds including the parental compound UC-112 were submitted to National Cancer Institute for its NCI-60 cell line screening, initially tested at one concentration (10 μM), and subsequently selected for full five concentration testing following the standard protocols disclosed by NCI [34]. In brief, cells were plated into 96 well micro-titer plates 24 h prior to the treatment of compound solution for 48 h, then the cell viability was read out through absorbance of sulforhodamine B (SRB) staining.

caspase 3/7 = assay: Caspase 3/7 functional assay (Caspase-Glo 3/7); format: cell-based, human; details: 1 μM, 24 h, A375 or PC-3 cells, N = 3
Procedure: The caspase 3/7 activity of cancer cells treated by DMSO control or compound of interest was analyzed using Glo Caspase-Glo 3/7 kit from Promega Corporation (Madison, WI) as per manufacturer’s instructions in similar protocol as described before. The readings of relative luminescence unit were normalized by the cell viability read from the same well determined by compatible CytoTox-Fluor Cytotoxicity assay kit (Promega, WI).

| SMILES | IC50 (A375) [nM] | IC50 (M14) [nM] | IC50 (M14/LCC6MDR1; Homo sapiens, 48 h) [nM] | Resistance Index (M14/LCC6MDR1) | IC50 (PC-3) [nM] | Activity in NCI-60 one-concentration screening (NCI-60 cell lines) | Caspase 3/7 activation relative to DMSO control group (caspase 3/7) | IC50 (M14/LCC6MDR1) [nM] | GI50 (NCI-60 cell lines; Homo sapiens, five dose testing, 48 h, SRB, read-out: Average GI50 over all cancer cell lines in the NCI-60 panel) [nM] |
| --- | --- | --- | --- | --- | --- | --- | --- | --- | --- |
| Oc1c(CN2CCCC2)cc(COCc2ccc(F)cc2)c2cccnc12 [4a, 5-(((4-fluorobenzyl)oxy)methyl)-7-(pyrrolidin-1-ylmethyl)quinolin-8-ol] | 1500 ± 200 | 1800 ± 300 | 4400 ± 700 | 2.4 | 700 ± 200 |  |  |  |  |
| Oc1c(CN2CCCC2)cc(COCc2ccc(Cl)cc2)c2cccnc12 [4b, 5-(((4-chlorobenzyl)oxy)methyl)-7-(pyrrolidin-1-ylmethyl)quinolin-8-ol] | 1500 ± 300 | 1100 ± 100 | 2400 ± 500 | 2.2 | 900 ± 100 |  |  |  |  |
| Oc1c(CN2CCCC2)cc(COCc2ccc(Br)cc2)c2cccnc12 [4c, 5-(((4-bromobenzyl)oxy)methyl)-7-(pyrrolidin-1-ylmethyl)quinolin-8-ol] | 900 ± 200 | 1000 ± 200 | 1800 ± 600 | 1.8 | 700 ± 300 | good activity | up to 4 folds |  |  |
| Oc1c(CN2CCCC2)cc(COCc2ccc(C(F)(F)F)cc2)c2cccnc12 [4d, 7-(pyrrolidin-1-ylmethyl)-5-(((4-(trifluoromethyl)benzyl)oxy)methyl)quinolin-8-ol] | 900 ± 300 | 1000 ± 400 | 1900 ± 500 | 1.9 | 1000 ± 100 |  |  |  |  |
| Cc1ccc(COCc2cc(CN3CCCC3)c(O)c3ncccc23)cc1 [4e, 5-(((4-methylbenzyl)oxy)methyl)-7-(pyrrolidin-1-ylmethyl)quinolin-8-ol] | 1700 ± 300 | 2300 ± 500 | 4100 ± 2000 | 1.8 | 1100 ± 200 |  |  |  |  |
| CC(C)(C)c1ccc(COCc2cc(CN3CCCC3)c(O)c3ncccc23)cc1 [4h, 5-(((4-(tert-butyl)benzyl)oxy)methyl)-7-(pyrrolidin-1-ylmethyl)quinolin-8-ol] | 1100 ± 400 |  | 1500 ± 700 |  | 1500 ± 300 |  |  |  |  |
| COc1ccc(COCc2cc(CN3CCCC3)c(O)c3ncccc23)cc1 [4i, 5-(((4-methoxybenzyl)oxy)methyl)-7-(pyrrolidin-1-ylmethyl)quinolin-8-ol] | 1800 ± 200 | 1500 ± 400 | 3800 ± 600 | 2.5 | 1000 ± 400 |  |  |  |  |
| Oc1c(CN2CCCC2)cc(COCc2ccc(OCc3ccccc3)cc2)c2cccnc12 [4j, 5-(((4-(benzyloxy)benzyl)oxy)methyl)-7-(pyrrolidin-1-ylmethyl)quinolin-8-ol] | 2800 ± 100 |  | 12100 ± 500 |  |  |  |  |  |  |
| CC(=O)Nc1ccc(COCc2cc(CN3CCCC3)c(O)c3ncccc23)cc1 [4k, N-(4-(((8-hydroxy-7-(pyrrolidin-1-ylmethyl)quinolin-5-yl)methoxy)methyl)phenyl)acetamide] | 4700 ± 800 |  | 5500 ± 1300 |  |  |  |  |  |  |
| COc1cc(COCc2cc(CN3CCCC3)c(O)c3ncccc23)cc(OC)c1OC [4l, 7-(pyrrolidin-1-ylmethyl)-5-(((3,4,5-trimethoxybenzyl)oxy)methyl)quinolin-8-ol] | 2800 ± 400 | 3600 ± 1000 | > 30000 | > 8.3 | 1600 ± 300 |  |  |  |  |
| Oc1c(CN2CCCC2)cc(COCc2ccco2)c2cccnc12 [6a, 5-((furan-2-ylmethoxy)methyl)-7-(pyrrolidin-1-ylmethyl)quinolin-8-ol] | 2700 ± 300 | 3100 ± 300 | 15300 ± 3100 | 4.9 | 27500 ± 2000 |  |  |  |  |
| Oc1c(CN2CCCC2)cc(COCc2cccs2)c2cccnc12 [6b, 7-(pyrrolidin-1-ylmethyl)-5-((thiophen-2-ylmethoxy)methyl)quinolin-8-ol] | 2500 ± 500 | 1900 ± 900 | 4200 ± 200 | 2.2 | 3400 ± 700 |  |  |  |  |
| Oc1c(CN2CCCC2)cc(COCc2ccccn2)c2cccnc12 [6c, 5-((pyridin-2-ylmethoxy)methyl)-7-(pyrrolidin-1-ylmethyl)quinolin-8-ol] | 8400 ± 1500 | 8000 ± 2200 | > 30000 | >3.8 | > 30000 |  |  |  |  |
| Oc1c(CN2CCCC2)cc(COCC2CCCCC2)c2cccnc12 [6d, 5-((cyclohexylmethoxy)methyl)-7-(pyrrolidin-1-ylmethyl)quinolin-8-ol] | 1000 ± 100 | 1300 ± 600 |  |  |  |  |  |  |  |
| CCOCc1cc(CN2CCCC2)c(O)c2ncccc12 [6e, 5-(ethoxymethyl)-7-(pyrrolidin-1-ylmethyl)quinolin-8-ol] | 6100 ± 700 | 5100 ± 2100 |  |  |  |  |  |  |  |
| CCCOCc1cc(CN2CCCC2)c(O)c2ncccc12 [6f, 5-(propoxymethyl)-7-(pyrrolidin-1-ylmethyl)quinolin-8-ol] | 5000 ± 300 | 5900 ± 1200 |  |  |  |  |  |  |  |
| CCCCOCc1cc(CN2CCCC2)c(O)c2ncccc12 [6g, 5-(butoxymethyl)-7-(pyrrolidin-1-ylmethyl)quinolin-8-ol] | 3000 ± 500 | 4900 ± 1300 |  |  |  |  |  |  |  |
| Oc1c(CN2CCCCC2)cc(COCc2ccccc2)c2cccnc12 [8a, 5-((benzyloxy)methyl)-7-(piperidin-1-ylmethyl)quinolin-8-ol] | 1100 ± 100 | 1300 ± 200 | 2100 ± 600 | 1.6 | 1300 ± 300 |  |  |  |  |
| Oc1c(CN2CCOCC2)cc(COCc2ccccc2)c2cccnc12 [8b, 5-((benzyloxy)methyl)-7-(morpholinomethyl)quinolin-8-ol] | 5000 ± 1600 | 4800 ± 500 | 3500 ± 1000 | 0.7 |  |  |  |  |  |
| Oc1c(CN2CCCC2)cc(COCCc2ccccc2)c2cccnc12 [10a, 5-(phenethoxymethyl)-7-(pyrrolidin-1-ylmethyl)quinolin-8-ol] | 2800 ± 900 | 2900 ± 200 | 15000 to 20000 | 5.2 |  |  |  | 15000 ± 2500 |  |
| Oc1c(CN2CCCC2)cc(COCCCc2ccccc2)c2cccnc12 [10b, 5-((3-phenylpropoxy)methyl)-7-(pyrrolidin-1-ylmethyl)quinolin-8-ol] | 2400 ± 700 | 2300 ± 800 | 15000 to 20000 | 8.7 |  |  |  | 20000 ± 1600 |  |
| Oc1c(CN2CCCC2)cc(CSCc2ccccc2)c2cccnc12 [12a, 5-((benzylthio)methyl)-7-(pyrrolidin-1-ylmethyl)quinolin-8-ol] | 1400 ± 300 | 1400 ± 200 | 2900 ± 600 | 2.1 | 1100 ± 100 | good activity | up to 4 folds |  |  |
| CN(Cc1ccccc1)Cc1cc(CN2CCCC2)c(O)c2ncccc12 [12b, 5-((benzyl(methyl)amino)methyl)-7-(pyrrolidin-1-ylmethyl)quinolin-8-ol] | 7100 ± 700 | 6200 ± 1400 | 8000 ± 1000 | 1.3 | 2500 ± 600 |  |  |  |  |
| Oc1c(CN2CCCC2)cc(COCc2ccccc2)c2cccnc12 [UC-112, 5-((benzyloxy)methyl)-7-(pyrrolidin-1-ylmethyl)quinolin-8-ol, reference compound] | 1900 ± 600 | 2100 ± 300 | 3200 ± 500 | 1.5 | 1600 ± 1000 | good activity |  |  | 2200 |
| COCCn1c2c([n+](Cc3cnccn3)c1C)C(=O)c1ccccc1C2=O [YM-155, reference compound] |  | 3 | > 10000 | higher than 2941 |  |  |  |  |  |
